Square brackets hold non-standard residues; d marks the D form. Peptide text beside a SMILES is read from it. * marks the point of attachment. Tic = O=C(O)[C@@H]1Cc2ccccc2CN1; Cha = N[C@@H](CC1CCCCC1)C(=O)O; NHPhenethyl = c1ccc(CCN*)cc1; Nle = CCCC[C@H](N)C(=O)O
Legend:
[1] = test system: T cell activation from 0404(DR14) chimeric MHCII-mice; experiment: In vivo inhibition of T cell activation by co-immunisation, DR14 mice immunised with OVA; set-up: species or system mouse; % Reduction of response to PPD(OVA): concentration or dose not given beside the values; conditions: for % Reduction of response to OVA: DR14 mice co-immunised with OVA plus compound, mean % inhibition from the control over 3 concentrations of antigen (6.7, 20 and 60 ug); for % Reduction of response to PPD(OVA): specificity control: response to PPD in the same cell pool, OVA co-immunised mice
Description: Mouse strains DR4 and DR14 carry chimeric MHC-II transgenes that encode the N-terminal domains of the respective DR molecules (forming the peptide binding site) and the remaining (2nd extracellular domains, transmembrane and intracytoplasmic domains) of the murine class II molecule I Ed. These strains are deficient of other murine class II, and thus, all helper T cell responses are triggered by peptides presented in the respective human MHC-II binding site. As an initial in vivo test of subject inhibitors designed to bind to DR, DR-transgenic mice were co-immunized with a pre-defined dose of protein antigen and different amounts of the compound antagonist to be tested. In this set-up, both antigen and compound were emulsified together in complete Freund's adjuvant (CFA), and thus, a direct competition between the two components for presentation by DR was tested. Readout of the assay is ex vivo antigen-specific activation of T cells from regional lymph nodes explanted 9 days after co-immunization. In a typical experiment, antigen dose-response was investigated, and the curves from mice immunized with antigen were compared to those from mice co-immunized with antigen+compound. The dose response curves were generated using lymph node cells pooled at equal numbers from 2-3 mice per experimental group. The experimental system also permits assessment of inherent antigenicity of the compound antagonist. This was done by setting up a dose-response study from the same cell pool using different concentrations of the compund under investigation instead of the antigen. As a specificity control, the response to Purified Protein Derivative (PPD), the major protein component of CFA, was tested in the same cell pool.
All Gpg conataining compounds have significant immunosupressive properties in one or both of the in-vivo models. Gpg-containing compounds also show improved activity or improved specificity over the Arg-containing equivilent. Further, compounds according to Formula I show activity in this assay.
Compounds of the invention were injected as an Emulsion prepared using CFA (Bacto Adjuvant Complete H37 Ra, Difco, Order-No. 3113-60); proteins 10 mg/ml in PBS, inhibitors 5 μM in 10% DMSO. CFA, PBS, antigen, and inhibitor were placed in the barrel of a 5-ml syringe (total volume not more than 1 mL). The mixture was sonicated at an amplitude less than 40% (30-35%) for two separated 15 s periods. The emulsion should seem to be hard and not liquid at this point. A drop of emulsion placed on the surface of water should not melt. The resulting emulsion was pushed through the needle into a 1 ml syringe with a needle (Gr.18, 26G×1″), and air bubbles were removed. Mice were co-immunized with 50 μg protein and 210 nM compound antagonist in final 100 μl emulsion into the tail base. Antigen+Compound and CFA are mixed 1:1 vol/vol. The best results are obtained using DR 4 mice immunised with HEL and DR 14 mice immunized with OVA.
Mice were injected at the tail-base as follows: Holding the tail of a mouse with thumb and middle finger, the index finger was placed under the base of the mouse's tail. The needle of the syringe was inserted about 1.5 cm from the tail base (hairy end) under the skin and pushed about 1 cm into the tail. 100 μl emulsion was injected into the mouse. After 9 days, mice were killed and lymph nodes removed.
The inhibitory effect of the candidate compounds on T-cell activation was tested using T-cells and antigen-presenting cells isolated from the lymph nodes of chimeric DR4-IE transgenic mice (Taconic, USA) previously co-immunized with hen egg lysozyme plus compound, or DR14-IE transgenic mice co-immunized with ovalbumin plus compound according to standard procedures (Adorini et al., 1988, Mueller et al., 1990; Current Protocols in Immunology, Vol. 2, 7.21; Ito et al., 1996). […]

[2] = Stability of compounds in rat blood plasma; format: in vitro ADME
Method: (§1) The stability of the peptidomimetic compounds was determined in rat (Charles River Laboratories, Sulzfeld), mouse (Charles River Laboratories, Sulzfeld) and human (Bayerisches Rotes Kreuz, München) blood plasma (E. R. Garrett and M. R. Gardner, J Pharmaceutical Sciences 71 (1982) 14-25).
(§2) Compound stock solutions were diluted into blood plasma to give a final compound concentration of 5 μM and the mixtures were incubated at 37° C. At 0, 6 and 24 hours 1 ml samples were drawn and the plasma proteins were precipitated by the addition of 3 ml acetonitrile p.a. and whirlmixing. The precipitate was pelleted by centrifugation at 2000 g for 5 minutes. The supernatant was evaporated off to dryness and the residue was reconstituted in 400 μl 50% acetonitrile, 0.1% TFA in water.
(§3) PBS controls were prepared for unstable compounds accordingly.

[3] = Stability of compounds in human blood plasma; format: in vitro ADME
Method: as §1, §2, §3

[4] = Stability of compounds in mouse blood plasma; format: in vitro ADME
Method: as §1, §2, §3

[5] = target: DR1 (DRA1*0101 DRB1*0101) (Homo sapiens, UniProt P01903+P01911, A100R/D57E/F55L/F60I/F76Y/I96L/L162R/M171V/P40L/Q125E/R42F/V115G/Y59C); experiment: Competitive binding to MHC-II protein DR1; conditions: Protein binding IC50 (nM) 0101, 0101
Method: (§4) Interaction mixtures lacking the peptidomimetic compound and both peptide mimetic compound and MHC-II were used as positive and negative controls, respectively. All interaction mixtures were set up in duplicates and were incubated for 16 hours at room temperature.
(§5) After washing with PBS, 60 μl of the MHC-II-compound interaction mixtures were transferred from the interaction plate to the appropriate wells of the capture plate and incubated for 2 h at 4° C. The wells were washed six times with 200 μl/well of cooled (4 to 8° C.) 1×DELFIA wash (Wallac-ADL-GmbH, Freiburg), incubated with 100 μl of cooled Europium-streptavidin conjugate (Wallac-ADL-GmbH, Freiburg; diluted 1/1000 with DELFIA assay buffer) for 30 minutes at 4° C., again washed six times with cooled 1×DELFIA wash and, finally, incubated with 200 μl cooled DELFIA enhancement solution (Wallac-ADL-GmbH, Freiburg) for one hour at room temperature before reading the time-resolved europium fluorescence at λex Eu^3+: 340 nm and λem Eu^3+: 613 (615) nm (Wallac Victor^2 1420 Multilabel Counter, Wallac-ADL-GmbH, Freiburg).

[6] = test system: T-cell proliferation, lymph node cells of chimeric 0401-IE transgenic mice; conditions: DR4-LN
Method: The compounds were tested as follows to inhibit the proliferative T cell response of antigen-primed lymph node cells from mice carrying a chimeric mouse-human class II transgene with an RA-associated peptide binding site, and lack murine class II molecules (Muller et al., 1990; Woods et al., 1994; Current Protocols in Immunology, Vol. 2, 7.21; Ito et al., 1996). Here, the immunization takes place in vivo, but the inhibition and readout are ex vivo. […] These mice lack murine MHC class II, and thus, all Th responses are channelled through a single human RA-associated MHC class II molecule (Ito et al. 1996). These transgenic mice represent a model for testing human class II antagonists.
1.5×10^5 cells are incubated in 0.2 ml wells of 96-well tissue culture plates in the presence of ovalbumin (30 μg per well—half-maximal stimulatory concentration) and a dilution series of the compound under test (from around 0.1 to 200 uM) in serum free HL-1 medium containing 2 mM L-glutamine and 0.1 g/l Kanamycin for three days. Antigen specific proliferation is measured by 3H-methyl-thymidine (1 μCi/well) incorporation during the last 16 h of culture (Falcioni et al., 1999). Cells are harvested, and 3H incorporation measured using a scintillation counter (TopCount, Wallac Finland).

[7] = target: DR4Dw4 (DRA1*0101 DRB1*0401) (Homo sapiens, UniProt P01903+P01911, A100K/A169T/F76Y/I96L/K127E/L162R/M171V/N62H/P40V/Q125Y/R42H/S133A/S149N/S66Y/V115G/V209L/W38E); experiment: Competitive binding to MHC-II protein DR4Dw4
Method: as §4, §5

[8] = target: Cathepsin B1 (EC 3.4.22.1 from bovine spleen) (Bos taurus, UniProt P07688); conditions: Cathepsin B, 4 h
[9] = target: DR4Dw14 (DRA1*0101 DRB1*0404) (Homo sapiens, UniProt P01903+P01911, A100R/A169T/F76Y/I96L/K127E/L162R/M171V/N62H/P40V/Q125Y/R42H/S133A/S149N/S66Y/V209L/W38E); experiment: Competitive binding to MHC-II protein DR4Dw14; conditions: 0404; read-out: Protein binding IC50 (nM) 0404
Method: as §4, §5

| Compound | % Reduction of response to OVA [1] | % Reduction of response to PPD(OVA) [1] | Stability (Arbitrary units) Rat 6 h [2] | Stability (Arbitrary units) Human 6 h [3] | Stability (Arbitrary units) Human 24 h [3] | Stability (Arbitrary units) Mouse 6 h [4] | Stability (Arbitrary units) Mouse 24 h [4] | IC50 [5] | Immunsupressive assays DR4-LN (Max) % Inhibition ([6]; maximal inhibition) | IC50 ([6]; read-out: Immunsupressive assays DR4-LN (IC50)) | IC50 [7] | Stability (Arbitrary units) Cath B 4 h [8] | IC50 [9] |
| --- | --- | --- | --- | --- | --- | --- | --- | --- | --- | --- | --- | --- | --- |
| Ac-Hfe-Gpg-Tic-Nle-βPhPro-[S(oxaz)L]-NMe2 [Compound P57] | 52.6% | 52.4% |  |  |  |  |  |  |  |  |  |  |  |
| CCCC[C@H](NC(=O)[C@@H]1Cc2ccccc2CN1C(=O)[C@H](CCCNC(=N)N)NC(=O)[C@H](CC1CCCCC1)NC(C)=O)C(=O)NCCc1ccccc1 [Compound P82, Ac-Cha-Arg-Tic-Nle-N(H)CH2CH2Ph] (Ac-[Cha]R[Tic][Nle]-NHPhenethyl) | 25% | 5% | 65 Arbitrary units | 94 Arbitrary units | 72 Arbitrary units | 79 Arbitrary units | 31 Arbitrary units | 3100 nM | 100% | 27 µM | 18 µM | 105 Arbitrary units | 14000 nM |
